In paper PMC12090182, “Repurposing of the RIPK1-Selective Benzo[1,4]oxazepin-4-one Scaffold for the Development of a Type III LIMK1/2 Inhibitor” (ACS Chemical Biology, 2025):
Where two headings read alike, the source gives them in different places.

Tested on: U2OS cells
Type: cell-based
Conditions: U2OS; for Cell count normalized to cells treated with DMSO control / Cell count per well / Population Fragmented Nuclei (%) / Population Healthy Nuclei (%) / Population Pyknosed Nuclei (%) / Population apoptotic cell (%) / Population cell that influence microtubule strucutre (%) / Population with increased mitochondrial mass (%) / Population with membrane disruption (%): 1 µM
Description: To assess the influence on cell health, a high-content screening in living cells called the multiplex high-content assay, as described previously by Tjaden et al., was performed.[38] In brief, HEK293T (ATCC CRL-1573) and U2OS (ATCCHTB-96) were cultured in DMEM plus L-glutamine (high glucose) supplemented by 10% FBS (Gibco) and penicillin/streptomycin (Gibco). MRC-9 fibroblasts ([…]) were cultured in EMEM plus L-glutamine supplemented by 10% FBS (Gibco) and penicillin/streptomycin (Gibco). Cells were seeded at a density of 1250 cells per well in a 384-well plate in a culture medium (cell culture microplate, PS, f-bottom, μClear, 781091, Greiner), with a volume of 50 μL per well. All outer wells were filled with 100 μL of PBS buffer (Gibco). […] The cell shape and fluorescence were measured before treatment and 12, 24, and 48 h after compound treatment using the CQ1 high-content confocal microscope (Yokogawa, Musashino, Japan). […] The compounds were tested at 1 and 10 μM, respectively. Acquired images of the cells were processed using Yokogawa CellPathfinder software (v3.04.02.02). […] Results were normalized to cells exposed to 0.1% DMSO. All compounds were tested in biological duplicates, and SEM (standard error of mean) was calculated of biological duplicates.

## CN1C(=O)[C@@H](N2CCc3c(nn(Cc4ccccc4)c3C(N)=O)C2=O)COc2cc(Cl)ccc21 [Compound 10, (S)-2-benzyl-6-(8-chloro-5-methyl-4-oxo-2,3,4,5-tetrahydrobenzo[b][1,4]oxazepin-3-yl)-7-oxo-4,5,6,7-tetrahydro-2H-pyrazolo[3,4-c]pyridine-3-carboxamide]
0 h, replicate 1
  Cell count normalized to cells treated with DMSO control: 1.139
  Cell count per well: 237
  Population Fragmented Nuclei (%): 37.05%
  Population Healthy Nuclei (%): 52.23%
  Population Pyknosed Nuclei (%): 10.71%
  Population apoptotic cell (%): 66.67%
  Population cell that influence microtubule strucutre (%): 2.56%
  Population with increased mitochondrial mass (%): 0.85%
  Population with membrane disruption (%): 5.98%
0 h, replicate 2
  Cell count normalized to cells treated with DMSO control: 0.8633
  Cell count per well: 74
  Population Fragmented Nuclei (%): 16.44%
  Population Healthy Nuclei (%): 79.45%
  Population Pyknosed Nuclei (%): 4.11%
  Population apoptotic cell (%): 33.33%
  Population cell that influence microtubule strucutre (%): 1.72%
  Population with increased mitochondrial mass (%): 1.72%
  Population with membrane disruption (%): 3.45%
12 h, replicate 1
  Cell count normalized to cells treated with DMSO control: 1.055
  Cell count per well: 279
  Population Fragmented Nuclei (%): 23.90%
  Population Healthy Nuclei (%): 65.44%
  Population Pyknosed Nuclei (%): 10.66%
  Population apoptotic cell (%): 75.86%
  Population cell that influence microtubule strucutre (%): 2.81%
  Population with increased mitochondrial mass (%): 1.69%
  Population with membrane disruption (%): 7.87%
12 h, replicate 2
  Cell count normalized to cells treated with DMSO control: 0.9215
  Cell count per well: 109
  Population Fragmented Nuclei (%): 11.11%
  Population Healthy Nuclei (%): 84.26%
  Population Pyknosed Nuclei (%): 4.63%
  Population apoptotic cell (%): 80.00%
  Population cell that influence microtubule strucutre (%): 2.20%
  Population with increased mitochondrial mass (%): 2.20%
  Population with membrane disruption (%): 3.30%
24 h, replicate 1
  Cell count normalized to cells treated with DMSO control: 1.136
  Cell count per well: 354
  Population Fragmented Nuclei (%): 25.72%
  Population Healthy Nuclei (%): 65.90%
  Population Pyknosed Nuclei (%): 8.38%
  Population apoptotic cell (%): 82.76%
  Population cell that influence microtubule strucutre (%): 4.39%
  Population with increased mitochondrial mass (%): 2.63%
  Population with membrane disruption (%): 7.02%
24 h, replicate 2
  Cell count normalized to cells treated with DMSO control: 0.9633
  Cell count per well: 137
  Population Fragmented Nuclei (%): 12.50%
  Population Healthy Nuclei (%): 81.62%
  Population Pyknosed Nuclei (%): 5.88%
  Population apoptotic cell (%): 87.50%
  Population cell that influence microtubule strucutre (%): 1.80%
  Population with increased mitochondrial mass (%): 1.80%
  Population with membrane disruption (%): 3.60%
48 h, replicate 1
  Cell count normalized to cells treated with DMSO control: 1.128
  Cell count per well: 502
  Population Fragmented Nuclei (%): 21.34%
  Population Healthy Nuclei (%): 69.72%
  Population Pyknosed Nuclei (%): 8.94%
  Population apoptotic cell (%): 86.36%
  Population cell that influence microtubule strucutre (%): 2.04%
  Population with increased mitochondrial mass (%): 3.21%
  Population with membrane disruption (%): 6.41%
48 h, replicate 2
  Cell count normalized to cells treated with DMSO control: 0.973
  Cell count per well: 201
  Population Fragmented Nuclei (%): 6.57%
  Population Healthy Nuclei (%): 83.33%
  Population Pyknosed Nuclei (%): 10.10%
  Population apoptotic cell (%): 85.00%
  Population cell that influence microtubule strucutre (%): 1.82%
  Population with increased mitochondrial mass (%): 2.42%
  Population with membrane disruption (%): 4.85%
1 μM
  cytotoxicity: no cytotoxicity
